# Reference: paper PMC9607081 (Membranes, 2022)
# Positions count from the first letter of the chain named. Read-outs that look alike come from different tables or passages of the source.
# Tests used:
# Type in all cases: cell-based
# [1] = biological target: T1, human GlyR α1 subunit P146 (CysL) substituted with Pro (Homo sapiens, UniProt P23415); test: TEVC, oocytes, nonsense suppression, P146 Pro recovery; settings: for EC50: Table 3, nonsense suppression
# T1 construct: expressed in transfected cells; host or cells: Xenopus laevis oocytes injected with receptor mRNA
# T1 sequence (P23415 29-457): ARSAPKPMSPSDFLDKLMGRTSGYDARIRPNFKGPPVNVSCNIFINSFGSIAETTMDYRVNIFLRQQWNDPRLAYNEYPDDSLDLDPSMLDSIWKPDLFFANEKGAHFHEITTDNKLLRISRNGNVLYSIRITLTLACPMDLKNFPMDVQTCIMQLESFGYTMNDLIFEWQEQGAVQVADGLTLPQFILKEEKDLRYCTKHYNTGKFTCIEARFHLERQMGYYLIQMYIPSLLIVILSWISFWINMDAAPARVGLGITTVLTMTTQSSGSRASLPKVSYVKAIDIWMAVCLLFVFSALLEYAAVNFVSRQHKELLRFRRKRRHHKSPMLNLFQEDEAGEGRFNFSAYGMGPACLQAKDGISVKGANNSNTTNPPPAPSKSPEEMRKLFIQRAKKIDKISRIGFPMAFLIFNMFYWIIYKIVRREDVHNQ
# Description: Injection volumes were 50–100 nL per cell. […] The holding potential was −60 mV unless otherwise specified.
# [2] = biological target: T2, human GlyR α1 subunit P146A (Homo sapiens, UniProt P23415, P174A); test: Two-electrode voltage clamp of Xenopus oocytes expressing P146A GlyR; settings: for nH (Hill coefficient): Table 1, n = 5; for EC50: Table 1, −60 mV
# T2 construct: expressed in transfected cells; host or cells: Xenopus laevis oocytes injected with receptor mRNA
# T2 sequence (P23415 29-457 P174A): T1 sequence (P23415 29-457) with P146A
# Description: (§1) Injection volumes were 50–100 nL per cell.
# (§2) All experiments were performed at 22–25 °C. […] The holding potential was −60 mV unless otherwise specified.
# [3] = biological target: T3, human GlyR α1 subunit P96A (Homo sapiens, UniProt P23415, P124A); test: Two-electrode voltage clamp of Xenopus oocytes expressing P96A GlyR; settings: for nH (Hill coefficient): Table 1, n = 5; for EC50: Table 1, −60 mV
# T3 construct: expressed in transfected cells; host or cells: Xenopus laevis oocytes injected with receptor mRNA
# T3 sequence (P23415 29-457 P124A): T1 sequence (P23415 29-457) with P96A
# Description: as §1, §2
# [4] = biological target: T4, human GlyR α1 subunit P230A (Homo sapiens, UniProt P23415, P258A); test: Two-electrode voltage clamp of Xenopus oocytes expressing P230A GlyR; settings: for nH (Hill coefficient): Table 1, n = 5; for EC50: Table 1, −60 mV
# T4 construct: expressed in transfected cells; host or cells: Xenopus laevis oocytes injected with receptor mRNA
# T4 sequence (P23415 29-457 P258A): T1 sequence (P23415 29-457) with P230A
# Description: as §1, §2
# human GlyR α1 subunit WT = biological target: T5, human GlyR α1 subunit WT (Homo sapiens, UniProt P23415); test: Two-electrode voltage clamp of Xenopus oocytes expressing WT GlyR; settings: for nH (Hill coefficient): Table 1, n = 5; for EC50: Table 1, −60 mV; for % ImaxTau /ImaxGly: Tau maximal current relative to Gly maximal current
# T5 construct: expressed in transfected cells; host or cells: Xenopus laevis oocytes injected with receptor mRNA
# T5 sequence (P23415 29-457): T1 sequence (P23415 29-457)
# Description: as §1, §2
# [5] = n = 5, read-out: pEC50 (converted)
structure (smiles),measurement,setting,value
"NCC(=O)O [Gly, glycine]",nH,"[1]; Table 2, n = 6",2.5 ± 0.4
same,nH,"[1]; Table 3, n = 4",3.2 ± 1.6
same,nH (Hill coefficient),[2],2.4 ± 0.7
same,nH (Hill coefficient),[3],2.2 ± 0.3
same,nH (Hill coefficient),[4],2.2 ± 0.4
same,nH (Hill coefficient),human GlyR α1 subunit WT,2.3 ± 0.5
"NCCS(=O)(=O)O [Tau, taurine]",% ImaxTau /ImaxGly,"[1]; Table 3, n = 4",43 ± 5%
same,nH,"[1]; Table 3, n = 4",1.5 ± 0.3
same,EC50,"[1]; n = 4, read-out: EC50",1.03 mM
same,EC50,"[1]; n = 4, read-out: pEC50 (converted)",1.04 mM
same,nH (Hill coefficient),[2],1.5 ± 0.3
same,EC50,"[2]; n = 5, read-out: EC50",1.41 mM
same,EC50,[2]; [5],1.41 mM
same,% ImaxTau /ImaxGly,[2]; n = 5,39 ± 3 %
same,nH (Hill coefficient),[3],1.9 ± 0.2
same,EC50,"[3]; n = 5, read-out: EC50",2.44 mM
same,EC50,[3]; [5],2.44 mM
same,% ImaxTau /ImaxGly,[3]; n = 5,36 ± 2 %
same,nH (Hill coefficient),[4],2.2 ± 0.4
same,EC50,"[4]; n = 5, read-out: EC50",1.19 mM
same,EC50,[4]; [5],1.19 mM
same,% ImaxTau /ImaxGly,[4]; n = 5,20 ± 1 %
same,nH (Hill coefficient),human GlyR α1 subunit WT,1.7 ± 0.3
same,EC50,"human GlyR α1 subunit WT; n = 5, read-out: EC50",0.583 mM
same,EC50,human GlyR α1 subunit WT; [5],0.582 mM
same,% ImaxTau /ImaxGly,human GlyR α1 subunit WT; n = 5,50 ± 4%
same,% ImaxTau /ImaxGly,"human GlyR α1 subunit WT; n = 5, listed as Taurine",50%
